A word on the inhibition: it is the drop in the measured response relative to a control, in per cent.

Inhibition data for ten compounds are collected here from patent US9957251B2 (Takeda Pharmaceutical Company Limited, priority 2014, dated 2018).

One assay concerns the target T1, CDK8/CycC (Homo sapiens, UniProt P49336).
T1 construct: purchased Carna Biosciences
Nature of the assay: CDK8 inhibitory activity (TR-FRET, Kinase Tracer-236 displacement). It counts as binding. The conditions noted are these: 1 μM of the test compound; read-out: Percent inhibition of CDK8 activity (%). In outline:
(§1)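 Binding assay measuring displacement of Kinase Tracer-236 (60 nM in the added mix) by compound, using Eu-cryptate anti-GST antibody with CDK8/CycC (84 ng/mL) or CDC2L6/CycC (87 ng/mL) solutions. After 1 h at room temperature, TR-FRET read at 615 and 665 nm (excitation 320 nm).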

The target of the next assay is T2, CDK19 (CDC2L6/CycC) (Homo sapiens, UniProt Q9BWU1).
T2 construct: purchased Carna Biosciences
T2 sequence (Q9BWU1 whole entry): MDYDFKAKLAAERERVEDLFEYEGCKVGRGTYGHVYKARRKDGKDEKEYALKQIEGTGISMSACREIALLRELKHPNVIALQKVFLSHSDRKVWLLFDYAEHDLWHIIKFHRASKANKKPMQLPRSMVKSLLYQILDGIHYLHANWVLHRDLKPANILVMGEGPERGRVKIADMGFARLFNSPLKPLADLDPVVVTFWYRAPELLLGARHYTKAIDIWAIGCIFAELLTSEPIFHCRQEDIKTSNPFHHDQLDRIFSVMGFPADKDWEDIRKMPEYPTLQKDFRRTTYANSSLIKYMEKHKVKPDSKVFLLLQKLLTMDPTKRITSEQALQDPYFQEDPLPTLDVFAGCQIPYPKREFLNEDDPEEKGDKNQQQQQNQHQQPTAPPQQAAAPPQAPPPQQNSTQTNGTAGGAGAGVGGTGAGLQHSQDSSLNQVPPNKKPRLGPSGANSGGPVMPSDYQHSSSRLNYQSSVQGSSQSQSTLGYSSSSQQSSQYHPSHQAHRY
T2 sequence (P24863 whole entry partner): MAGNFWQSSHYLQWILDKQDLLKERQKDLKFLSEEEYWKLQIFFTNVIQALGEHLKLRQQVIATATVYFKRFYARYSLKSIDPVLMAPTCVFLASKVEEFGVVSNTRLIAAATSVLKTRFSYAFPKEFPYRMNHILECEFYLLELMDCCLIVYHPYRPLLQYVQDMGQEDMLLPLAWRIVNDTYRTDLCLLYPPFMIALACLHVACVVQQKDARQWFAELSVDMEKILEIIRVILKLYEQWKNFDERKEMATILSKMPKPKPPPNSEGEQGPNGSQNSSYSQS
Put plainly: CDK19 inhibitory activity (TR-FRET, Kinase Tracer-236 displacement). Type of assay: binding. The conditions noted are these: 1 μM of the test compound; read-out: Percent inhibition of CDK19 activity (%). A digest of the protocol: as §1
(Time-resolved FRET reads energy transfer from a long-lived donor to a nearby acceptor.)

Assay [1] concerns human multiple myeloma RPMI8226 cells. Nature of the assay: Inhibitory activity against human multiple myeloma RPMI8226 cell growth (CellTiter-Glo). As to conditions: Homo sapiens, RPMI-8226, 192 h, 1 μM of the test compound, cultured for 8 days; read-out: Percent inhibition of RPMI8226 cell growth (%). It counts as cell-based. In outline:
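RPMI8226 cells (300/well) cultured 1 day at 37 °C, 5% CO2, then given compound at 1 μM for 8 days. ATP luminescence (CellTiter-Glo) read; percent inhibition relative to 0.1% DMSO wells.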
(In general: Cellular ATP, detected with luciferase, serves as a proxy for viable cell number.)

T1 sequence (P49336 whole entry): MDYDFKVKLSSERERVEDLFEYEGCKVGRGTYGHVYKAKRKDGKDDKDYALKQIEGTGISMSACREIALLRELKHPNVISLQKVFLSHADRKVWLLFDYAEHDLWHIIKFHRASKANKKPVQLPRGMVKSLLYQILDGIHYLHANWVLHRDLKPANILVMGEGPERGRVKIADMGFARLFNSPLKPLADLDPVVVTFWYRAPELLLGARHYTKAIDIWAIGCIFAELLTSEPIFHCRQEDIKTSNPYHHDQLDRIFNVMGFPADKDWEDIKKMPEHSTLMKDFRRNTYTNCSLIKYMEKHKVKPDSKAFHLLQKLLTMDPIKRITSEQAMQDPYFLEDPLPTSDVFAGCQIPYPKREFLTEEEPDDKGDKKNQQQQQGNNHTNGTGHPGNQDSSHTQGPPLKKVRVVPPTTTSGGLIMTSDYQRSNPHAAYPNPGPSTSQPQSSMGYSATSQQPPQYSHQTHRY
T1 sequence (P24863 whole entry partner): as the sequence (P24863 whole entry partner) above

Turning to `Cn1cc(-c2ccncc2/C=C/C(=O)Nc2cc(F)c(CN3CCOCC3)cc2F)cn1` [Example 237, (2E)-N-(2,5-difluoro-4-(morpholin-4-ylmethyl)phenyl)-3-(4-(1-methyl-1H-pyrazol-4-yl)pyridin-3-yl)acrylamide], the inhibition at 1 µM at CDK8/CycC was 94%; on CDK19 (CDC2L6/CycC) it was 91%; in assay [1], 66%.
For `Cn1cc(-c2c(F)cncc2/C=C/C(=O)Nc2ccc(CN3CCOCC3)cc2)cn1` [Example 238, (2E)-3-(5-fluoro-4-(1-methyl-1H-pyrazol-4-yl)pyridin-3-yl)-N-(4-(morpholin-4-ylmethyl)phenyl)acrylamide] the same measures were 100%, 100% and 67%.
For `COCc1ccc(NC(=O)/C=C/c2cnccc2-c2cnn(C)c2)cc1` [Example 239, (2E)-N-(4-(methoxymethyl)phenyl)-3-(4-(1-methyl-1H-pyrazol-4-yl)pyridin-3-yl)acrylamide] the same measures were 100%, 100% and 65%.
On the same counts, the results for `O=C(/C=C/c1cnccc1-c1ccc2[nH]cnc2c1)Nc1ccc(CN2CCOCC2)cc1` [Example 241, (2E)-3-(4-(1H-benzimidazol-5-yl)pyridin-3-yl)-N-(4-(morpholin-4-ylmethyl)phenyl)acrylamide] are 99%, 101% and 66%.
Turning to `O=C(/C=C/c1cnccc1-c1ccc2[nH]ncc2c1)Nc1ccc(CN2CCOCC2)cc1` [Example 242, (2E)-3-(4-(1H-indazol-5-yl)pyridin-3-yl)-N-(4-(morpholin-4-ylmethyl)phenyl)acrylamide], the inhibition at 1 µM was 96% on CDK8/CycC, 97% at CDK19 (CDC2L6/CycC) and 55% in assay [1].
For `CC(=O)N(C)Cc1cc(NC(=O)/C=C/c2cnccc2-c2cnn(C)c2)ccc1C` [Example 246, (2E)-N-(3-((acetyl(methyl)amino)methyl)-4-methylphenyl)-3-(4-(1-methyl-1H-pyrazol-4-yl)pyridin-3-yl)acrylamide] the same measures were 95%, 93% and 49%.
On the same counts, the results for `O=C(/C=C/c1cnccc1-c1cnn(C2CC2)c1)Nc1ccc2c(c1)CN(CC(F)(F)F)CC2` [Example 247, (2E)-3-(4-(1-Cyclopropyl-1H-pyrazol-4-yl)pyridin-3-yl)-N-(2-(2,2,2-trifluoroethyl)-1,2,3,4-tetrahydroisoquinolin-7-yl)acrylamide] are 98%, 102% and 63%.
On the same counts, the results for `O=C(/C=C/c1cnccc1-c1cnn(C2CC2)c1)Nc1ccc2c(c1)CN(C(=O)C(F)(F)F)CC2` [Example 248, (2E)-3-(4-(1-Cyclopropyl-1H-pyrazol-4-yl)pyridin-3-yl)-N-(2-(trifluoroacetyl)-1,2,3,4-tetrahydroisoquinolin-7-yl)acrylamide] are 98%, 98% and 57%.
`Cn1cc(-c2ccncc2/C=C/C(=O)Nc2ccc(CN3CCOCC3)c(F)c2)cn1` [Example 249, (2E)-N-(3-fluoro-4-(morpholin-4-ylmethyl)phenyl)-3-(4-(1-methyl-1H-pyrazol-4-yl)pyridin-3-yl)acrylamide]: the inhibition at 1 µM at CDK8/CycC stood at 99%; at CDK19 (CDC2L6/CycC) it was 97%; in assay [1], 62%.
On the same counts, the results for `COc1ncc(-c2ccncc2/C=C/C(=O)Nc2ccc(CN3CCOCC3)cc2F)s1` [Example 250, (2E)-N-(2-Fluoro-4-(morpholin-4-ylmethyl)phenyl)-3-(4-(2-methoxy-1,3-thiazol-5-yl)pyridin-3-yl)acrylamide] are 99%, 96% and 63%.
